Laboratory results: patent publication US20130116263A1, “PAK INHIBITORS FOR THE TREATMENT OF CELL PROLIFERATIVE DISORDERS” (AFRAXIS, INC., priority 2011, published 2013)
Like-named read-outs stand apart in the source and are kept apart here.

Key:
PAK4 = PAK4 (Homo sapiens, UniProt O96013); test: Additional in vitro PAK-4 inhibition assay at ATP 10 uM and 1 mM; type: biochemical; conditions: 10 μM ATP; read-out: PAK4 IC50 (10 μM ATP)
Experimental: (§1) Similar in vitro PAK1 and PAK-4 inhibition assays are conducted in compounds for the treatment of cancer, but under ATP concentrations of 10 uM and 1 mM.

PAK1 = PAK1 (Homo sapiens, UniProt Q13153); test: Additional in vitro PAK1 inhibition assay at ATP 10 uM and 1 mM; type: biochemical
Experimental: as §1

[1] = 10 μM ATP, read-out: PAK1 IC50 (10 μM ATP)
[2] = 1 mM ATP, read-out: PAK1 IC50 (1 mM ATP)

PAK1, sequence (Q13153 whole entry): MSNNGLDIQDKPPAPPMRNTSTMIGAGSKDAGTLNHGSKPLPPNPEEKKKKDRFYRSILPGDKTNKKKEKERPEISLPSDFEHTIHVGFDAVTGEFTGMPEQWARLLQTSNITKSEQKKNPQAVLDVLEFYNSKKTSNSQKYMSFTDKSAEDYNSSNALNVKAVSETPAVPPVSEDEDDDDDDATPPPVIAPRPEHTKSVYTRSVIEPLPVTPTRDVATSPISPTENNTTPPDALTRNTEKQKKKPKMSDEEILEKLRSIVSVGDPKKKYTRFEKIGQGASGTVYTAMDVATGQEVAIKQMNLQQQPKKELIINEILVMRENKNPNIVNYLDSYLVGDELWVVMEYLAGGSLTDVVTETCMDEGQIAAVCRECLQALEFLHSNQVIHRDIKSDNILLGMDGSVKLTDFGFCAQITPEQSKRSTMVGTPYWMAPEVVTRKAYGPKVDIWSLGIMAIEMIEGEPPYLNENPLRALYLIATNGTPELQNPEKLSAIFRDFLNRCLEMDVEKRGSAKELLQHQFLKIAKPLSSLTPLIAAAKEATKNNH
PAK4, sequence (O96013 whole entry): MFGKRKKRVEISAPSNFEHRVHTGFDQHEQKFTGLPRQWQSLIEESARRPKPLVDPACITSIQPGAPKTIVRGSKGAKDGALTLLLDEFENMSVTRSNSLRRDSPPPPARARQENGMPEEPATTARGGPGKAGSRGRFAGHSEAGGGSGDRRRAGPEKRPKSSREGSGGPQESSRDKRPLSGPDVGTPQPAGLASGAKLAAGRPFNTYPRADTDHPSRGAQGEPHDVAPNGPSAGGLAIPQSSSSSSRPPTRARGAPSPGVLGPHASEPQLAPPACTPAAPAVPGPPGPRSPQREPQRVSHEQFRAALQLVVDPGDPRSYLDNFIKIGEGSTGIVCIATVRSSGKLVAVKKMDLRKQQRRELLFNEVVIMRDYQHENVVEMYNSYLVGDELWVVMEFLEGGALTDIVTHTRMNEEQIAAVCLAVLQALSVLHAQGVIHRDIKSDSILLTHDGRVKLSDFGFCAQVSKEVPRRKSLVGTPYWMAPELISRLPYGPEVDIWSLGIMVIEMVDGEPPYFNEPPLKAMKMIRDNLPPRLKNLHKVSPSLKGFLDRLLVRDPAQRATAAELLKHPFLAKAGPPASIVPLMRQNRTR

## CCn1c(=O)c(-c2ccc(-c3noc(C)n3)cc2Cl)cc2cnc(N[C@@H]3C[C@H]3C)nc21
PAK4
  IC50: < 0.05 µM
PAK1; [1]
  IC50: 0.05 to 0.5 µM
PAK1; [2]
  IC50: < 0.05 µM

## CCn1c(=O)c(-c2ccc(-c3noc(C)n3)cc2Cl)cc2cnc(NC3COC4(CCCC4)C3)nc21 (stereo not drawn)
PAK4
  IC50: 0.5 to 5 µM
PAK1; [1]
  IC50: 0.5 to 5 µM
PAK1; [2]
  IC50: ≥ 5 µM

## CCn1c(=O)c(-c2ccc(-c3noc(C)n3)cc2Cl)cc2cnc(NN3CCOCC3)nc21
PAK4
  IC50: ≥ 5 µM
PAK1; [1]
  IC50: 0.5 to 5 µM
PAK1; [2]
  IC50: ≥ 5 µM

## Cc1nc(-c2ccc(-c3cc4cnc(NC5CCOCC5)nc4n(C4CCN(C(=O)CN)CC4)c3=O)c(Cl)c2)no1
PAK4
  IC50: ≥ 5 µM
PAK1; [1]
  IC50: 0.05 to 0.5 µM
PAK1; [2]
  IC50: ≥ 5 µM

## Cc1nc(-c2ccc(-c3cc4cnc(NC5CCOCC5)nc4n(CC(=O)NCCCN)c3=O)c(Cl)c2)no1
PAK4
  IC50: ≥ 5 µM
PAK1; [1]
  IC50: < 0.05 µM
PAK1; [2]
  IC50: 0.5 to 5 µM

## Cc1nc(-c2ccc(-c3cc4cnc(NC5CCOCC5)nc4n(CC4CCCN(C)C4)c3=O)c(Cl)c2)no1 (stereo not drawn)
PAK4
  IC50: ≥ 5 µM
PAK1; [1]
  IC50: 0.05 to 0.5 µM
PAK1; [2]
  IC50: ≥ 5 µM

## Cc1nc(-c2ccc(-c3cc4cnc(NC5CCOCC5)nc4n(CC4CCN(C)CC4)c3=O)c(Cl)c2)no1
PAK4
  IC50: ≥ 5 µM
PAK1; [1]
  IC50: 0.05 to 0.5 µM
PAK1; [2]
  IC50: ≥ 5 µM

## Cc1nc(-c2ccc(-c3cc4cnc(NC5CCOCC5)nc4n(CC(=O)N4CCC(N)CC4)c3=O)c(Cl)c2)no1
PAK4
  IC50: ≥ 5 µM
PAK1; [1]
  IC50: 0.05 to 0.5 µM
PAK1; [2]
  IC50: ≥ 5 µM

## CCn1c(=O)c(-c2ccc(-c3noc(C)n3)cc2Cl)cc2cnc(NC3CC3c3ccccc3)nc21 (stereo not drawn)
PAK4
  IC50: 0.5 to 5 µM
PAK1; [1]
  IC50: 0.5 to 5 µM
PAK1; [2]
  IC50: 0.5 to 5 µM

## CCn1c(=O)c(-c2ccc(-c3noc(C)n3)cc2Cl)cc2cnc(NCc3ccncc3)nc21
PAK4
  IC50: ≥ 5 µM
PAK1; [1]
  IC50: 0.05 to 0.5 µM
PAK1; [2]
  IC50: ≥ 5 µM

## Cc1nc(-c2ccc(-c3cc4cnc(NC5CC5)nc4n(Cc4cccc(CN)c4)c3=O)c(Cl)c2)no1
PAK4
  IC50: ≥ 5 µM
PAK1; [1]
  IC50: < 0.05 µM
PAK1; [2]
  IC50: 0.5 to 5 µM

## CCn1c(=O)c(-c2ccc(-c3noc(C)n3)cc2Cl)cc2cnc(NCc3cccnc3)nc21
PAK4
  IC50: ≥ 5 µM
PAK1; [1]
  IC50: 0.5 to 5 µM
PAK1; [2]
  IC50: ≥ 5 µM

## CCn1c(=O)c(-c2ccc(-c3noc(C)n3)cc2Cl)cc2cnc(NCCCN(C)C)nc21
PAK4
  IC50: ≥ 5 µM
PAK1; [1]
  IC50: 0.5 to 5 µM
PAK1; [2]
  IC50: ≥ 5 µM

## CCN1CCC(CCNc2ncc3cc(-c4ccc(-c5noc(C)n5)cc4Cl)c(=O)n(CC)c3n2)CC1
PAK4
  IC50: ≥ 5 µM
PAK1; [1]
  IC50: 0.05 to 0.5 µM
PAK1; [2]
  IC50: 0.5 to 5 µM

## Cc1nc(-c2ccc(-c3cc4cnc(NC5CCOCC5)nc4n(Cc4cccc(OCCN)c4)c3=O)c(Cl)c2)no1 [drawing 344]
PAK4
  IC50: ≥ 5 µM
PAK1; [1]
  IC50: < 0.05 µM
PAK1; [2]
  IC50: 0.5 to 5 µM

## CCO[C@H]1COC[C@@H]1Nc1ncc2cc(-c3ccc(-c4noc(C)n4)cc3Cl)c(=O)n(CC)c2n1
PAK4
  IC50: ≥ 5 µM
PAK1; [1]
  IC50: 0.5 to 5 µM
PAK1; [2]
  IC50: ≥ 5 µM

## CCN1CCC(Cn2c(=O)c(-c3ccc(-c4noc(C)n4)cc3Cl)cc3cnc(NC4CCOCC4)nc32)CC1
PAK4
  IC50: ≥ 5 µM
PAK1; [1]
  IC50: 0.05 to 0.5 µM
PAK1; [2]
  IC50: ≥ 5 µM

## CCn1c(=O)c(-c2ccc(-c3noc(C)n3)cc2Cl)cc2cnc(NC3CC3)nc21
PAK4
  IC50: ≥ 5 µM
PAK1; [1]
  IC50: 0.05 to 0.5 µM
PAK1; [2]
  IC50: ≥ 5 µM

## Cc1nc(-c2ccc(-c3cc4cnc(NC5CCOCC5)nc4n(CC(=O)NC4CCNCC4)c3=O)c(Cl)c2)no1
PAK4
  IC50: ≥ 5 µM
PAK1; [1]
  IC50: 0.5 to 5 µM
PAK1; [2]
  IC50: ≥ 5 µM

## CCn1c(=O)c(-c2ccc(-c3noc(C)n3)cc2Cl)cc2cnc(NCC3CCOCC3)nc21
PAK4
  IC50: ≥ 5 µM
PAK1; [1]
  IC50: 0.5 to 5 µM
PAK1; [2]
  IC50: ≥ 5 µM

## Cc1nc(-c2ccc(-c3cc4cnc(NC5CCOCC5)nc4n(-c4ccccc4)c3=O)c(Cl)c2)no1
PAK4
  IC50: ≥ 5 µM
PAK1; [1]
  IC50: 0.05 to 0.5 µM
PAK1; [2]
  IC50: ≥ 5 µM

## Cc1nc(-c2ccc(-c3cc4cnc(NC5CCOCC5)nc4n(Cc4ccccc4)c3=O)c(Cl)c2)no1
PAK4
  IC50: ≥ 5 µM
PAK1; [1]
  IC50: 0.5 to 5 µM
PAK1; [2]
  IC50: ≥ 5 µM

## Cc1nc(-c2ccc(-c3cc4cnc(NC5CCOCC5)nc4n(C4CCN(CCN)C4)c3=O)c(Cl)c2)no1 (stereo not drawn)
PAK4
  IC50: ≥ 5 µM
PAK1; [1]
  IC50: 0.05 to 0.5 µM
PAK1; [2]
  IC50: ≥ 5 µM

## CCn1c(=O)c(-c2ccc(-c3noc(C)n3)cc2Cl)cc2cnc(NCCCNC(C)=O)nc21
PAK4
  IC50: ≥ 5 µM
PAK1; [1]
  IC50: 0.5 to 5 µM
PAK1; [2]
  IC50: ≥ 5 µM

## Cc1nc(-c2ccc(-c3cc4cnc(NC5CCOCC5)nc4n(C4CCOC(C)(C)C4)c3=O)c(Cl)c2)no1 (stereo not drawn)
PAK4
  IC50: ≥ 5 µM
PAK1; [1]
  IC50: < 0.05 µM
PAK1; [2]
  IC50: 0.5 to 5 µM

## CCn1c(=O)c(-c2ccc(-c3noc(C)n3)cc2Cl)cc2cnc(NCCCOC)nc21
PAK4
  IC50: ≥ 5 µM
PAK1; [1]
  IC50: 0.5 to 5 µM
PAK1; [2]
  IC50: ≥ 5 µM

## Cc1nc(-c2ccc(-c3cc4cnc(NC5CCOCC5)nc4n(CC4CCNCC4)c3=O)c(Cl)c2)no1 [drawing 340]
PAK4
  IC50: ≥ 5 µM
PAK1; [1]
  IC50: < 0.05 µM
PAK1; [2]
  IC50: 0.5 to 5 µM

## CCn1c(=O)c(-c2ccc(-c3noc(C)n3)cc2Cl)cc2cnc(NCC(=O)NC)nc21
PAK4
  IC50: ≥ 5 µM
PAK1; [1]
  IC50: 0.5 to 5 µM
PAK1; [2]
  IC50: ≥ 5 µM

## Cc1nc(-c2ccc(-c3cc4cnc(NC5CCOCC5)nc4n(CC(=O)N4CCCC(CN)C4)c3=O)c(Cl)c2)no1 (stereo not drawn)
PAK4
  IC50: ≥ 5 µM
PAK1; [1]
  IC50: 0.05 to 0.5 µM
PAK1; [2]
  IC50: ≥ 5 µM

## Cc1nc(-c2ccc(-c3cc4cnc(NC5CCOCC5)nc4n(CC(=O)N4CCCC(N)C4)c3=O)c(Cl)c2)no1 (stereo not drawn)
PAK4
  IC50: ≥ 5 µM
PAK1; [1]
  IC50: 0.05 to 0.5 µM
PAK1; [2]
  IC50: ≥ 5 µM

## CCn1c(=O)c(-c2ccc(-c3noc(C)n3)cc2Cl)cc2cnc(N[C@H]3CC[C@H](N4CCN(C)CC4)CC3)nc21
PAK4
  IC50: ≥ 5 µM
PAK1; [1]
  IC50: 0.5 to 5 µM
PAK1; [2]
  IC50: ≥ 5 µM

## CCn1c(=O)c(-c2ccc(-c3noc(C)n3)cc2Cl)cc2cnc(NCc3ccccc3)nc21
PAK4
  IC50: ≥ 5 µM
PAK1; [1]
  IC50: 0.5 to 5 µM
PAK1; [2]
  IC50: ≥ 5 µM

## Cc1nc(-c2ccc(-c3cc4cnc(NC5CCOCC5)nc4n(CCC4CCNCC4)c3=O)c(Cl)c2)no1 [drawing 343]
PAK4
  IC50: ≥ 5 µM
PAK1; [1]
  IC50: < 0.05 µM
PAK1; [2]
  IC50: 0.5 to 5 µM

## CCCCn1c(=O)c(-c2ccc(-c3noc(C)n3)cc2Cl)cc2cnc(NC3CCOCC3)nc21
PAK4
  IC50: ≥ 5 µM
PAK1; [1]
  IC50: 0.05 to 0.5 µM
PAK1; [2]
  IC50: ≥ 5 µM

## CCn1c(=O)c(-c2ccc(-c3noc(C)n3)cc2Cl)cc2cnc(NCCCO)nc21
PAK4
  IC50: ≥ 5 µM
PAK1; [1]
  IC50: 0.05 to 0.5 µM
PAK1; [2]
  IC50: ≥ 5 µM

## Cc1nc(-c2ccc(-c3cc4cnc(NC5CCOCC5)nc4n(Cc4cccc(CN)c4)c3=O)c(Cl)c2)no1 [drawing 342]
PAK4
  IC50: ≥ 5 µM
PAK1; [1]
  IC50: < 0.05 µM
PAK1; [2]
  IC50: 0.05 to 0.5 µM

## Cc1nc(-c2ccc(-c3cc4cnc(NC5CCOCC5)nc4n(C4CCNC4)c3=O)c(Cl)c2)no1 (stereo not drawn)
PAK4
  IC50: ≥ 5 µM
PAK1; [1]
  IC50: 0.5 to 5 µM
PAK1; [2]
  IC50: ≥ 5 µM

## Cc1nc(-c2ccc(-c3cc4cnc(NC5CCOCC5)nc4n(C4CC4)c3=O)c(Cl)c2)no1
PAK4
  IC50: ≥ 5 µM
PAK1; [1]
  IC50: 0.05 to 0.5 µM
PAK1; [2]
  IC50: ≥ 5 µM

## CCn1c(=O)c(-c2ccc(-c3noc(C)n3)cc2Cl)cc2cnc(NCC3CCOC3)nc21 (stereo not drawn)
PAK4
  IC50: ≥ 5 µM
PAK1; [1]
  IC50: 0.5 to 5 µM
PAK1; [2]
  IC50: ≥ 5 µM

## CCn1c(=O)c(-c2ccc(-c3noc(C)n3)cc2Cl)cc2cnc(NC3CCN(C)C3=O)nc21 (stereo not drawn)
PAK4
  IC50: ≥ 5 µM
PAK1; [1]
  IC50: ≥ 5 µM
PAK1; [2]
  IC50: ≥ 5 µM

## CCn1c(=O)c(-c2ccc(-c3noc(C)n3)cc2Cl)cc2cnc(NC3CCCC3)nc21
PAK4
  IC50: 0.5 to 5 µM
PAK1; [1]
  IC50: 0.5 to 5 µM
PAK1; [2]
  IC50: ≥ 5 µM

## CCn1c(=O)c(-c2ccc(-c3noc(C)n3)cc2Cl)cc2cnc(NCC(C)(C)O)nc21
PAK4
  IC50: ≥ 5 µM
PAK1; [1]
  IC50: 0.5 to 5 µM
PAK1; [2]
  IC50: ≥ 5 µM

## CCn1c(=O)c(-c2ccc(-c3noc(C)n3)cc2Cl)cc2cnc(NC3COC3)nc21
PAK4
  IC50: ≥ 5 µM
PAK1; [1]
  IC50: 0.05 to 0.5 µM
PAK1; [2]
  IC50: ≥ 5 µM

## CCn1c(=O)c(-c2ccc(-c3noc(C)n3)cc2Cl)cc2cnc(NC3CCOC(C)(C)C3)nc21 (stereo not drawn)
PAK4
  IC50: ≥ 5 µM
PAK1; [1]
  IC50: 0.05 to 0.5 µM
PAK1; [2]
  IC50: ≥ 5 µM

## Cc1nc(-c2ccc(-c3cc4cnc(N[C@H]5C[C@@H]5C)nc4n(CC4CCNCC4)c3=O)c(Cl)c2)no1
PAK4
  IC50: ≥ 5 µM
PAK1; [1]
  IC50: < 0.05 µM
PAK1; [2]
  IC50: 0.5 to 5 µM

## CCn1c(=O)c(-c2ccc(-c3noc(C)n3)cc2Cl)cc2cnc(N[C@H]3COC[C@H]3O)nc21
PAK4
  IC50: ≥ 5 µM
PAK1; [1]
  IC50: 0.5 to 5 µM
PAK1; [2]
  IC50: ≥ 5 µM

## CCn1c(=O)c(-c2ccc(-c3noc(C)n3)cc2Cl)cc2cnc(N[C@@H]3CCO[C@@H]3N3CCN(C)CC3)nc21
PAK4
  IC50: ≥ 5 µM
PAK1; [1]
  IC50: 0.05 to 0.5 µM
PAK1; [2]
  IC50: ≥ 5 µM
